Each compound was assayed against MCH receptor (Homo sapiens, UniProt Q99705) (assay: Receptor binding assay with Radiolabelled MCH Ligand). Conditions: class by percent of control at 10^-7 M or IC50.
Design: expressed in transfected cells; host or cells: 293 cells (human kidney, ATCC), transient transfection; crude membranes
Excerpt: In addition to the methods described herein, another means for evaluating a test compound is by determining binding affinities to the MCH receptor. This type of assay generally requires a radiolabelled ligand to the MCH receptor. Absent the use of known ligands for the MCH receptor and radiolabels thereof, compounds of Formula (I) can be labelled with a radioisotope and used in an assay for evaluating the affinity of a test compound to the MCH receptor.
A radiolabelled MCH compound of Formula (I) can be used in a screening assay to identify/evaluate compounds. In general terms, a newly synthesized or identified compound (i.e., test compound) can be evaluated for its ability to reduce binding of the “radiolabelled compound of Formula (I)” to the MCH receptor. Accordingly, the ability to compete with the “radio-labelled compound of Formula (I)” or Radiolabelled MCH Ligand for the binding to the MCH receptor directly correlates to its binding affinity of the test compound to the MCH receptor.
293 cells (human kidney, ATCC), transiently transfected with 10 μg human MCH receptor and 60 μl Lipofectamine (per 15-cm dish), are grown in the dish for 24 hours (75% confluency) with a media change and removed with 10 mL/dish of Hepes-EDTA buffer (20 mM Hepes+10 mM EDTA, pH 7.4). The cells are then centrifuged in a Beckman Coulter centrifuge for 20 minutes, 17,000 rpm (JA-25.50 rotor). Subsequently, the pellet is resuspended in 20 mM Hepes+1 mM EDTA, pH 7.4 and homogenized with a 50-mL Dounce homogenizer and again centrifuged. After removing the supernatant, the pellets can be stored at −80° C., until used in binding assay. When used in the assay, membranes are thawed on ice for 20 minutes and then 10 mL of incubation buffer (20 mM Hepes, 1 mM MgCl2, 100 mM NaCl, pH 7.4) added. The membranes are then vortexed to resuspend the crude membrane pellet and homogenized with a Brinkmann PT-3100 Polytron homogenizer for 15 seconds at setting 6. The concentration of membrane protein is determined using the BRL Bradford protein assay.
For total binding, a total volume of 50 ul of appropriately diluted membranes (diluted in assay buffer containing 50 mM Tris HCl (pH 7.4), 1 mM MgCl2, and 1 mM EDTA; 5-50 ug protein) is added to 96-well polyproylene microtiter plates followed by addition of 100 μl of assay buffer and 50 μl of Radiolabelled MCH Ligand. For nonspecific binding, 50 μl of assay buffer is added instead of 100 μl and an additional 50 μl of 10 uM cold MCH is added before 50 μl of Radiolabelled MCH Ligand is added. Plates are then incubated at room temperature for 60-120 minutes. The binding reaction is terminated by filtering assay plates through a Microplate Devices GF/C Unifilter filtration plate with a Brandell 96-well plate harvester followed by washing with cold 50 mM Tris HCl, pH 7.4 containing 0.9% NaCl. Then, the bottom of the filtration plate are sealed, 50 ul of Optiphase Supermix is added to each well, the top of the plates are sealed, and plates are counted in a Trilux MicroBeta scintillation counter. For compound competition studies, instead of adding 100 μl of assay buffer, 100 μl of appropriately diluted test compound is added to appropriate wells followed by addition of 50 μl of Radiolabelled MCH Ligand.
The test compounds are initially assayed at 1 and 0.1 μM and then at a range of concentrations chosen such that the middle dose would cause about 50% inhibition of a Radiolabelled MCH Ligand binding (i.e., IC50). Specific binding in the absence of test compound (BO) is the difference of total binding (BT) minus non-specific binding (NSB) and similarly specific binding (in the presence of test compound) (B) is the difference of displacement binding (BD) minus non-specific binding (NSB). IC50 is determined from an inhibition response curve, logit-log plot of % B/BO vs. concentration of test compound.
Ki is calculated by the Cheng and Prustoff transformation: […]

Chain of MCH receptor (Q99705 whole entry): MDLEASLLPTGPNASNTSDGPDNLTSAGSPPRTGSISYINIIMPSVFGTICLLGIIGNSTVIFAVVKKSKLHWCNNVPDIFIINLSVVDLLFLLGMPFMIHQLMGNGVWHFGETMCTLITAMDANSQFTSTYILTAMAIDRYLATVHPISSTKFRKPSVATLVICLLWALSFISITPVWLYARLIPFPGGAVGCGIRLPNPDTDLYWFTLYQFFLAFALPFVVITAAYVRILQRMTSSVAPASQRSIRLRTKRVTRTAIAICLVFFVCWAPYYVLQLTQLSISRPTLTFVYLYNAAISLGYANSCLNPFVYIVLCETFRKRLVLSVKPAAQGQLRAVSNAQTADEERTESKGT

Row | Compound | class
1 | CCc1cccc(CC)c1NC(=S)N[C@H]1CC[C@@H](Nc2cc(N(C)C)nc(C)n2)CC1 [compound 438, N-(2,6-diethylphenyl)-N′-(cis-4-{[6-(dimethylamino)-2-methylpyrimidin-4-yl]amino}cyclohexyl)thiourea] | 2 (Class 2: The value of percent of control at 10^−7 M was from 40% to 60% or the value of IC50 was from 50 nM to 200 nM.)
2 | Cc1nc(N[C@H]2CC[C@@H](NC(=O)CCc3ccccc3)CC2)cc(N(C)C)n1 [compound 258] | 3 (Class 3: The value of percent of control at 10^−7 M was more than 60% or the value of IC50 was more than 200 nM.)
3 | Cc1nc(N[C@H]2CC[C@@H](NCCOc3ccccc3)CC2)cc(N(C)C)n1 [compound 381] | 3 (Class 3: The value of percent of control at 10^−7 M was more than 60% or the value of IC50 was more than 200 nM.)
4 | COc1ccc(NC(=S)N[C@H]2CC[C@@H](Nc3cc(N(C)C)nc(C)n3)CC2)cc1OC [compound 445] | 3 (Class 3: The value of percent of control at 10^−7 M was more than 60% or the value of IC50 was more than 200 nM.)
5 | Cc1nc(N[C@H]2CC[C@@H](NC(=O)OCc3ccc([N+](=O)[O-])cc3)CC2)cc(N(C)C)n1 [compound 460] | 3 (Class 3: The value of percent of control at 10^−7 M was more than 60% or the value of IC50 was more than 200 nM.)
6 | Cc1nc(N[C@H]2CC[C@@H](NCc3ccc(F)c(F)c3)CC2)cc(N(C)C)n1 [compound 369] | 3 (Class 3: The value of percent of control at 10^−7 M was more than 60% or the value of IC50 was more than 200 nM.)
7 | Cc1nc(N[C@H]2CC[C@@H](NC(=O)Oc3ccc(Br)cc3)CC2)cc(N(C)C)n1 [compound 455, 4-bromophenyl (cis-4-{[6-(dimethylamino)-2-methylpyrimidin-4-yl]amino}cyclohexyl)carbamate] | 3 (Class 3: The value of percent of control at 10^−7 M was more than 60% or the value of IC50 was more than 200 nM.)
8 | Cc1nc(N[C@H]2CC[C@@H](NC(=O)c3ccc(Oc4ccccc4)cc3)CC2)cc(N(C)C)n1 [compound 326] | 3 (Class 3: The value of percent of control at 10^−7 M was more than 60% or the value of IC50 was more than 200 nM.)
9 | Cc1nc(N[C@H]2CC[C@@H](NC(=O)OCc3ccccc3Cl)CC2)cc(N(C)C)n1 [compound 468] | 3 (Class 3: The value of percent of control at 10^−7 M was more than 60% or the value of IC50 was more than 200 nM.)
10 | Cc1nc(N[C@H]2CC[C@@H](NCCc3ccccc3Br)CC2)cc(N(C)C)n1 [compound 406] | 3 (Class 3: The value of percent of control at 10^−7 M was more than 60% or the value of IC50 was more than 200 nM.)
11 | Cc1nc(N[C@H]2CC[C@@H](NCc3cccc([N+](=O)[O-])c3)CC2)cc(N(C)C)n1 [compound 379] | 3 (Class 3: The value of percent of control at 10^−7 M was more than 60% or the value of IC50 was more than 200 nM.)
12 | CCCCCCCOc1ccc(C(=O)N[C@H]2CC[C@@H](Nc3cc(N(C)C)nc(C)n3)CC2)cc1 [compound 251] | 3 (Class 3: The value of percent of control at 10^−7 M was more than 60% or the value of IC50 was more than 200 nM.)
13 | Cc1nc(N[C@H]2CC[C@@H](NC(=O)c3ccc(SC(F)(F)F)cc3)CC2)cc(N(C)C)n1 [compound 261] | 3 (Class 3: The value of percent of control at 10^−7 M was more than 60% or the value of IC50 was more than 200 nM.)
14 | Cc1cc(C)c(NC(=O)N[C@H]2CC[C@@H](Nc3cc(N(C)C)nc(C)n3)CC2)c(C)c1 [compound 417] | 3 (Class 3: The value of percent of control at 10^−7 M was more than 60% or the value of IC50 was more than 200 nM.)
15 | Cc1nc(N[C@H]2CC[C@@H](NS(C)(=O)=O)CC2)cc(N(C)C)n1 [compound 478] | 3 (Class 3: The value of percent of control at 10^−7 M was more than 60% or the value of IC50 was more than 200 nM.)
16 | Cc1ccnc(SCC(=O)N[C@H]2CC[C@@H](Nc3cc(N(C)C)nc(C)n3)CC2)n1 [compound 280] | 3 (Class 3: The value of percent of control at 10^−7 M was more than 60% or the value of IC50 was more than 200 nM.)
17 | Cc1nc(N[C@H]2CC[C@@H](NCc3cccc4c3-c3ccccc3C4=O)CC2)cc(N(C)C)n1 [compound 392] | 3 (Class 3: The value of percent of control at 10^−7 M was more than 60% or the value of IC50 was more than 200 nM.)
18 | Cc1nc(N[C@H]2CC[C@@H](NCCOc3c(F)c(F)c(F)c(F)c3F)CC2)cc(N(C)C)n1 [compound 389] | 3 (Class 3: The value of percent of control at 10^−7 M was more than 60% or the value of IC50 was more than 200 nM.)
19 | COC(=O)c1ccc(S(=O)(=O)N[C@H]2CC[C@@H](Nc3cc(N(C)C)nc(C)n3)CC2)n1C [compound 507] | 3 (Class 3: The value of percent of control at 10^−7 M was more than 60% or the value of IC50 was more than 200 nM.)
20 | Cc1nc(N[C@H]2CC[C@@H](NC(=O)CN3C(=O)c4ccccc4C3=O)CC2)cc(N(C)C)n1 [compound 274] | 3 (Class 3: The value of percent of control at 10^−7 M was more than 60% or the value of IC50 was more than 200 nM.)
21 | Cc1nc(N[C@H]2CC[C@@H](NS(=O)(=O)c3ccc(C)c(Cl)c3)CC2)cc(N(C)C)n1 [compound 485] | 3 (Class 3: The value of percent of control at 10^−7 M was more than 60% or the value of IC50 was more than 200 nM.)
22 | Cc1nc(N[C@H]2CC[C@@H](NC(=O)c3cccc4c3-c3ccccc3C4=O)CC2)cc(N(C)C)n1 [compound 247] | 3 (Class 3: The value of percent of control at 10^−7 M was more than 60% or the value of IC50 was more than 200 nM.)
23 | COc1ccc(NC(=O)N[C@H]2CC[C@@H](Nc3cc(N(C)C)nc(C)n3)CC2)cc1OC1CCCC1 [compound 427] | 3 (Class 3: The value of percent of control at 10^−7 M was more than 60% or the value of IC50 was more than 200 nM.)
24 | Cc1nc(N[C@H]2CC[C@@H](NCc3ccc4c(c3)C(=O)c3ccccc3C4=O)CC2)cc(N(C)C)n1 [compound 353] | 3 (Class 3: The value of percent of control at 10^−7 M was more than 60% or the value of IC50 was more than 200 nM.)
25 | CCCCCCCOc1ccc(CN[C@H]2CC[C@@H](Nc3cc(N(C)C)nc(C)n3)CC2)cc1 [compound 396] | 3 (Class 3: The value of percent of control at 10^−7 M was more than 60% or the value of IC50 was more than 200 nM.)
26 | Cc1nc(N[C@H]2CC[C@@H](NC(=O)c3ccc(F)c(F)c3)CC2)cc(N(C)C)n1 [compound 218, N-(cis-4-{[6-(dimethylamino)-2-methylpyrimidin-4-yl]amino}cyclohexyl)-3,4-difluorobenzamide] | 1 (Class 1: The value of percent of control at 10^−7 M was less than 40% or the value of IC50 was less than 50 nM.)
27 | COc1ccc(C(=O)N[C@H]2CC[C@@H](Nc3cc(N(C)C)nc(C)n3)CC2)cc1OC [compound 219] | 3 (Class 3: The value of percent of control at 10^−7 M was more than 60% or the value of IC50 was more than 200 nM.)
28 | COc1ccc2[nH]c(C(=O)N[C@H]3CC[C@@H](Nc4cc(N(C)C)nc(C)n4)CC3)cc2c1 [compound 293] | 3 (Class 3: The value of percent of control at 10^−7 M was more than 60% or the value of IC50 was more than 200 nM.)
29 | Cc1cc(C)c(NC(=S)N[C@H]2CC[C@@H](Nc3cc(N(C)C)nc(C)n3)CC2)c(C)c1 [compound 437, N-(cis-4-{[6-(dimethylamino)-2-methylpyrimidin-4-yl]amino}cyclohexyl)-N′-mesitylthiourea] | 2 (Class 2: The value of percent of control at 10^−7 M was from 40% to 60% or the value of IC50 was from 50 nM to 200 nM.)

Reference: patent US20090036448A1, “PYRIMIDINE DERIVATIVES AND METHODS OF TREATMENT RELATED TO THE USE THEREOF” (TAISHO PHARMECUTICAL CO., LTD., priority 2004, published 2009)
